Read-outs that look alike come from different tables or passages of the source.
Columns and labels:
[1] = test system: patients with Inflammatory Bowel Disease; conditions: for Allele frequencies: Deletion allele / Allele frequencies: Insertion Allele: number of alleles (%); for Genotype: Insertion no / Genotype: Insertion yes / Genotype frequencies: Insertion no / Genotype frequencies: Insertion yes: number of patients
[2] = test system: patients with IBD (Inflammatory Bowel Disease); test: Prospective cohort starting 2 mg/kg AZA for IBD (Example 2): response versus AOX3404A>G, TPMT activity and HLA-G markers
[3] = test system: patients with Inflammatory Bowel Disease; conditions: for Genotype frequencies: Insertion no / Genotype frequencies: Insertion yes: number of patients (%); for Allelic frequencies: Deletion allele / Allelic frequencies: Insertion Allele: number of alleles (%)
[4] = Crohn's Disease Patients, Outcome Failure
[5] = Crohn's Disease Patients, Outcome Response
[6] = Ulcerative Colitis Patients, Outcome Failure
[7] = Ulcerative Colitis Patients, Outcome Response
[8] = of cohort of 182 patients starting 2 mg/kg
[9] = number of patients with side effect

## Cn1cnc([N+](=O)[O-])c1Sc1ncnc2nc[nH]c12 [azathioprine]
[1]; All Patients, Outcome Failure
  Allele frequencies: Deletion allele: 50 (64%)
  Allele frequencies: Insertion Allele: 30 (36%)
[1]; All Patients, Outcome Response
  Allele frequencies: Deletion allele: 39 (34%)
  Allele frequencies: Insertion Allele: 75 (65%)
[1]; CD, Fail
  Genotype: Insertion no: 2
  Genotype: Insertion yes: 17
[1]; CD, Response
  Genotype: Insertion no: 15
  Genotype: Insertion yes: 14
[1]; [4]
  Allele frequencies: Deletion allele: 14 (37%)
  Allele frequencies: Insertion Allele: 24 (63%)
[1]; [5]
  Allele frequencies: Deletion allele: 45 (69%)
  Allele frequencies: Insertion Allele: 18 (31%)
[1]; UC, Fail
  Genotype: Insertion no: 3
  Genotype: Insertion yes: 18
[1]; UC, Response
  Genotype: Insertion no: 10
  Genotype: Insertion yes: 18
[1]; [6]
  Allele frequencies: Deletion allele: 16 (38%)
  Allele frequencies: Insertion Allele: 26 (62%)
[1]; [7]
  Allele frequencies: Deletion allele: 45 (62%)
  Allele frequencies: Insertion Allele: 21 (37%)
[1]; all patients, Outcome Fail
  Genotype frequencies: Insertion no: 21
  Genotype frequencies: Insertion yes: 30
[1]; all patients, Outcome Response
  Genotype frequencies: Insertion no: 50
  Genotype frequencies: Insertion yes: 32
[1]; allele frequencies, All Patients
  Fisher's exact test OR: OR = 3.2
[1]; allele frequencies, Crohn's Disease Patients
  Fisher's exact test OR: OR = 4.2
[1]; allele frequencies, Ulcerative Colitis Patients
  Fisher's exact test OR: OR = 3.4
[1]; genotype frequencies, all patients
  Fisher's exact test OR: OR = 2.2,
[1]; genotype, CD
  Fisher's exact test OR: OR = 9,
[1]; genotype, UC
  Fisher's exact test OR: OR = 3,
[1]; of 100 patients completing minimum three months, steroid withdrawal and Harvey Bradshaw index less than four
  patients identified as responders to therapy: 50 patients
[1]; of the 140 patients recruited
  withdrew due to intolerable side-effects: 40
[2]; [8]
  non-responders: 44
  responders: 66
  those discontinuing treatment due to side effects: 72
[2]; those with all adverse predictors
  chance of responding: 14%
[2]; those with no adverse predictors
  chance of responding: 95%

## CN(Cc1cnc2nc(N)nc(N)c2n1)c1ccc(C(=O)N[C@@H](CCC(=O)O)C(=O)O)cc1 [methotrexate]
[3]; 94 patients on folate, 39 never on folate
  association between side effects and folate supplementation: No association
[3]; Outcome Fail (91 pts.)
  Genotype frequencies: Insertion no: 21 (23%%)
  Genotype frequencies: Insertion yes: 70 (77%)
[3]; Outcome Failure
  Allelic frequencies: Deletion allele: 86 (47%)
  Allelic frequencies: Insertion Allele: 96 (52%)
[3]; Outcome Response (91 pts.)
  Genotype frequencies: Insertion no: 40 (44%)
  Genotype frequencies: Insertion yes: 51 (56%)
[3]; Outcome Response
  Allelic frequencies: Deletion allele: 113 (62%)
  Allelic frequencies: Insertion Allele: 69 (37%)
[3]; allelic frequencies, response vs failure
  Fisher's exact test OR: OR = 1.8
[3]; genotype frequencies, response vs fail
  Fisher's exact test OR: OR = 2.6,
[3]; methotrexate group
  patients developed side effects: 45 patients
  patients withdrawn from therapy as a direct consequence of their side-effect: 21 patients
[3]; [9]
  abdominal pain: one
  alopecia: one
  haematological abnormalities including neutropenia: four
  minor infections: four
  mucositis: two
  muscle and joint pains: three
  nausea: 16
  skin rash: three
  transient LFT abnormalities: 10
[3]; of 187 patients completing at least three months of therapy
  patients responded to treatment (percent): 51%
[3]; of 187 patients completing at least three months of therapy, response = steroid withdrawal or documented efficacy
  patients responded to treatment: 97 patients
[3]; oral vs subcutaneous vs intramuscular induction progressing to oral
  response to treatment between administration regimes: no difference in the response to treatment
